The assay addresses T1, NaChBac (Halalkalibacterium halodurans, UniProt Q9KCR8).
T1 construct: gene BH1501; NaChBac in pTracer-CMV2, transiently expressed in tsA 201 cells; homotetramer
T1 sequence (Q9KCR8 1-274): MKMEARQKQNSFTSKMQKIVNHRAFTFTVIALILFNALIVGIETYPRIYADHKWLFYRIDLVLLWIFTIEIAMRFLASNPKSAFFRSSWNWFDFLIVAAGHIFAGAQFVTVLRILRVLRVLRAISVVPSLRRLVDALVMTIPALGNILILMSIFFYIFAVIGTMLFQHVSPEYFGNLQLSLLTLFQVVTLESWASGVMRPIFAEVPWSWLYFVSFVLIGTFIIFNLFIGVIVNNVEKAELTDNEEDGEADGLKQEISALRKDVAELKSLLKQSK
Put plainly: whole-cell patch clamp. Format: cell-based. As to conditions: 142.5 mM external replacing Na+; pH 7.4; room temperature; weak pore block of Na+ current.

Drawing on publication PMC6813354, “Bases of Bacterial Sodium Channel Selectivity Among Organic Cations” (Scientific Reports, 2019), this text covers whole-cell patch clamp for two compounds.

As for `CN` [MA^+, methylammonium], the whole-cell patch clamp result was “MA^+ reduces the sodium current amplitude more effectively than TMA^+ in WT and E191D mutant”.

For the compound `C[N+](C)(C)C` [TMA^+, tetramethylammonium], the whole-cell patch clamp result is “different blocking effects of TMA^+ (purple) and MA^+ (orange), relative to Na^+ controls”.
